Biological target: recombinant human Vps34 (Homo sapiens, UniProt Q8NEB9)
Assay: Vps34 KinaseGlo assay
Type: biochemical
Conditions: KinaseGlo luminescence ATP detection; PI/OG substrate; 1 μM ATP; room temperature; 8 concentrations, n=2
Method: It was then resuspended in 3% OctylGlucoside by vortexing and stored at 4° C. 5 μL of a mix of PI/OG with recombinant human Vps34 were added. Kinase reactions were started by addition of 5 μl of ATP-mix containing in a final volume 10 μL 10 mM TRIS-HCl pH 7.5, 3 mM MgCl2, 50 mM NaCl, 0.05% CHAPS, 1 mM DTT and 1 μM ATP, and occurred at room temperature. Reactions were stopped with 10 μl of KinaseGlo and plates were read 10 minutes later in a Synergy2 reader using an integration time of 0.1 seconds per well.

recombinant human Vps34, sequence (Q8NEB9 whole entry): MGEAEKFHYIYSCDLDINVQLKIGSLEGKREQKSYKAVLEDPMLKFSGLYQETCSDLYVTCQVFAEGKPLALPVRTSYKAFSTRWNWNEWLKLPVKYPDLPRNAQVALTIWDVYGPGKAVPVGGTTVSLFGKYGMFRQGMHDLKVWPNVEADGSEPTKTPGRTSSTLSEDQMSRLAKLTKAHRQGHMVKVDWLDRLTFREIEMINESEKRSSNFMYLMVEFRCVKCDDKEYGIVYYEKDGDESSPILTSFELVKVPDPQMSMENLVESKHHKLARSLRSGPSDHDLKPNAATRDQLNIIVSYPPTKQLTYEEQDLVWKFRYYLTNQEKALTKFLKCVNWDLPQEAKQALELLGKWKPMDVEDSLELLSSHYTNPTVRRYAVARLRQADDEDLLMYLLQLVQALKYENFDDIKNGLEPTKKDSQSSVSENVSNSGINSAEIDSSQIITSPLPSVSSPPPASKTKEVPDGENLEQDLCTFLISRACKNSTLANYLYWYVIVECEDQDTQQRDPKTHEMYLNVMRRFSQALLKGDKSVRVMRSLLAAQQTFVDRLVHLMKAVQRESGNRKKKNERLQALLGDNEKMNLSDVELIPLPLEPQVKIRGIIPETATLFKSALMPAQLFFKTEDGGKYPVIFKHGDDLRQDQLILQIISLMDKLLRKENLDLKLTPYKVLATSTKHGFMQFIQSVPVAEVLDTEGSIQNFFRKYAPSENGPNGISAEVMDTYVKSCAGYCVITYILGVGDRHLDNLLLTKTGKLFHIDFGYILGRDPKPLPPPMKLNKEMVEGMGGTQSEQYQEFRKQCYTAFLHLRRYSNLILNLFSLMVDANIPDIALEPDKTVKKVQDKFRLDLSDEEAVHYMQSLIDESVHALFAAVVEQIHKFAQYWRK

| IC50 | Structure (SMILES) |
| --- | --- |
| 29 nM | CC(O)CNc1ncc(-c2ccnc(Nc3ccncc3)n2)c(CC2CC2)n1 (stereo not drawn) [Example 10j, 1-(4′-(cyclopropylmethyl)-2-(pyridin-4-ylamino)-4,5′-bipyrimidin-2′-ylamino)propan-2-ol] |
| 138 nM | CC(=O)Nc1ccc(Nc2nccc(-c3cnc(NCC(C)(C)O)nc3CC3CC3)n2)cc1 [Example 16f, N-(4-(4′-(cyclopropylmethyl)-2′-(2-hydroxy-2-methylpropylamino)-4,5′-bipyrimidin-2-ylamino)phenyl)acetamide] |
| 258 nM | C[C@@H](Nc1ncc(-c2ccnc(Nc3ccncc3)n2)c(CC2CC2)n1)c1ccccc1 [Example 10h, (R)-4′-(cyclopropylmethyl)-N^2′-(1-phenylethyl)-N^2-(pyridin-4-yl)-4,5′-bipyrimidine-2,2′-diamine] |
| 7 nM | Nc1ncc(-c2ccnc(Nc3ccncc3)n2)c(COCc2ccccc2)n1 [Example 13, 4′-Benzyloxymethyl-N^2-pyridin-4-yl-[4,5′]bipyrimidinyl-2,2′-diamine] |
| 1100 nM | CNc1ncc(-c2ccnc(NC3CCCCC3)n2)c(CC2CC2)n1 [Example 14e, N^2-Cyclohexyl-4′-cyclopropylmethyl-N^2′-methyl-[4,5′]bipyrimidinyl-2,2′-diamine] |
| 101 nM | Nc1ncc(-c2ccnc(Nc3ccc4c(c3)OCO4)n2)c(CC2CC2)n1 [Example 15m, N^2-(benzo[d][1,3]dioxol-5-yl)-4′-(cyclopropylmethyl)-4,5′-bipyrimidine-2,2′-diamine] |
| 48 nM | CNc1ncc(-c2ccnc(Nc3cccnc3)n2)c(CC2CC2)n1 [Example 14l, 4′-(cyclopropylmethyl)-N^2′-methyl-N^2-(pyridin-3-yl)-4,5′-bipyrimidine-2,2′-diamine] |
| 96 nM | CC(C)(O)CNc1ncc(-c2ccnc(Nc3ccncc3)n2)c(C(F)(F)F)n1 [Example 24, 2-methyl-1-(2-(pyridin-4-ylamino)-4′-(trifluoromethyl)-4,5′-bipyrimidin-2′-ylamino)propan-2-ol] |
| 117 nM | CC(C)(O)CNc1ncc(-c2ccnc(Nc3ccc(C#N)cc3)n2)c(C(F)(F)F)n1 [Example 25, 4-(2′-(2-hydroxy-2-methylpropylamino)-4′-(trifluoromethyl)-4,5′-bipyrimidin-2-ylamino)benzonitrile] |
| 45.5 nM | c1cc(Nc2nccc(-c3cnc(NC4CC4)nc3CC3CC3)n2)ccn1 [Example 12c, N^2′-cyclopropyl-4′-(cyclopropylmethyl)-N^2-(pyridin-4-yl)-4,5′-bipyrimidine-2,2′-diamine] |
| 35 nM | CC(C)(C)Nc1ncc(-c2ccnc(Nc3ccncc3)n2)c(CC2CC2)n1 [Example 10i, N^2′-tert-butyl-4′-(cyclopropylmethyl)-N^2-(pyridin-4-yl)-4,5′-bipyrimidine-2,2′-diamine] |
| 122 nM | Nc1ncc(-c2ccnc(NCCc3c[nH]c4ccccc34)n2)c(CC2CC2)n1 [Example 15p, N^2-(2-(1H-indol-3-yl)ethyl)-4′-(cyclopropylmethyl)-4,5′-bipyrimidine-2,2′-diamine] |
| 924 nM | Nc1ncc(-c2ccnc(Nc3nncs3)n2)c(CC2CC2)n1 [Example 15i, 4′-(cyclopropylmethyl)-N^2-(1,3,4-thiadiazol-2-yl)-4,5′-bipyrimidine-2,2′-diamine] |
| 11.5 nM | OCCNc1ncc(-c2ccnc(Nc3ccncc3)n2)c(CC2CC2)n1 [Example 10m, 2-(4′-(cyclopropylmethyl)-2-(pyridin-4-ylamino)-4,5′-bipyrimidin-2′-ylamino)ethanol] |
| 15 nM | CC(C)(O)CNc1ncc(-c2ccnc(Nc3ccncc3)n2)c(CC2CC2)n1 [Example 10t, 1-(4′-(cyclopropylmethyl)-2-(pyridin-4-ylamino)-4,5′-bipyrimidin-2′-ylamino)-2-methylpropan-2-ol] |
| 111 nM | CNc1ncc(-c2ccnc(N[C@H]3CC[C@H](O)CC3)n2)c(CC2CC2)n1 [Example 6e, (1r, 4r)-4-(4′-(cyclopropylmethyl)-2′-(methylamino)-4,5′-bipyrimidin-2-ylamino)cyclohexanol] |
| 872 nM | CC(C)(O)CNc1ncc(-c2ccnc(N[C@H]3CC[C@H](NS(C)(=O)=O)CC3)n2)c(CC2CC2)n1 [Example 16g, N-((1r,4r)-4-(4′-(cyclopropylmethyl)-2′-(2-hydroxy-2-methylpropylamino)-4,5′-bipyrimidin-2-ylamino)cyclohexyl)methanesulfonamide] |
| 57 nM | Nc1ncc(-c2ccnc(Nc3ccc(Cl)cc3)n2)c(CC2CC2)n1 [Example 15o, N^2-(4-chlorophenyl)-4′-(cyclopropylmethyl)-4,5′-bipyrimidine-2,2′-diamine] |
| 236 nM | c1cc(Nc2nccc(-c3cnc(NC4CCOCC4)nc3CC3CC3)n2)ccn1 [Example 10g, 4′-(cyclopropylmethyl)-N^2-(pyridin-4-yl)-N^2′-(tetrahydro-2H-pyran-4-yl)-4,5′-bipyrimidine-2,2′-diamine] |
| 728 nM | CCc1ncc(-c2ccnc(N[C@H]3CC[C@H](O)CC3)n2)c(CC2CC2)n1 [Example 6d, (1r,4r)-4-(4′-(cyclopropylmethyl)-2′-ethyl-4,5′-bipyrimidin-2-ylamino)cyclohexanol] |

| IC50 | Structure (SMILES) |
| --- | --- |
| 48 nM | Cc1cc(Nc2nccc(-c3cnc(N)nc3CC3CC3)n2)on1 [Example 15h, 4′-Cyclopropylmethyl-N^2-(3-methyl-isoxazol-5-yl)-[4,5′]bipyrimidinyl-2,2′-diamine] |
| 193 nM | Nc1ncc(-c2ccnc(Nc3ccc(Cl)cn3)n2)c(CC2CC2)n1 [Example 15v, N^2-(5-chloropyridin-2-yl)-4′-(cyclopropylmethyl)-4,5′-bipyrimidine-2,2′-diamine] |
| 85 nM | CC(C)(C)CNc1ncc(-c2ccnc(Nc3ccncc3)n2)c(CC2CC2)n1 [Example 10r, 4′-(cyclopropylmethyl)-N2′-neopentyl-N2-(pyridin-4-yl)-4,5′-bipyrimidine-2,2′-diamine] |
| 20 nM | CCNc1ncc(-c2ccnc(Nc3ccncc3)n2)c(CC2CC2)n1 [Example 10b, 4′-(cyclopropylmethyl)-N^2′-ethyl-N^2-(pyridin-4-yl)-4,5′-bipyrimidine-2,2′-diamine] |
| 150 nM | CC(C)(O)CNc1ncc(-c2ccnc(Nc3ccc(F)cc3)n2)c(CC2CC2)n1 [Example 16c, 1-(4′-(cyclopropylmethyl)-2-(4-fluorophenylamino)-4,5′-bipyrimidin-2′-ylamino)-2-methylpropan-2-ol] |
| 570 nM | c1cc(Nc2nccc(-c3cnc(NC4CCCCC4)nc3CC3CC3)n2)ccn1 [Example 12b, N^2′-cyclohexyl-4′-(cyclopropylmethyl)-N^2-(pyridin-4-yl)-4,5′-bipyrimidine-2,2′-diamine] |
| 72 nM | CC(C)CNc1ncc(-c2ccnc(Nc3ccncc3)n2)c(CC2CC2)n1 [Example 10d, 4′-(cyclopropylmethyl)-N^2′-isobutyl-N^2-(pyridin-4-yl)-4,5′-bipyrimidine-2,2′-diamine] |
| 37 nM | CNc1ncc(-c2ccnc(Nc3ccncc3)n2)c(CC2CC2)n1 [Example 14c, 4′-(cyclopropylmethyl)-N^2′-methyl-N^2-(pyridin-4-yl)-4,5′-bipyrimidine-2,2′-diamine] |
| 51.5 nM | CCC(C)Nc1ncc(-c2ccnc(Nc3ccncc3)n2)c(CC2CC2)n1 (stereo not drawn) [Example 10s, N^2′-sec-butyl-4′-(cyclopropylmethyl)-N^2-(pyridin-4-yl)-4,5′-bipyrimidine-2,2′-diamine] |
| 26 nM | CC(C)(O)CNc1ncc(-c2ccnc(Nc3ccc(S(C)(=O)=O)cc3)n2)c(CC2CC2)n1 [Example 16d, 1-(4′-(cyclopropylmethyl)-2-(4-(methylsulfonyl)phenylamino)-4,5′-bipyrimidin-2′-ylamino)-2-methylpropan-2-ol] |
| 210 nM | C[C@H](CO)Nc1ncc(-c2ccnc(Nc3ccncc3)n2)c(CC2CC2)n1 [Example 10p, (R)-2-(4′-(cyclopropylmethyl)-2-(pyridin-4-ylamino)-4,5′-bipyrimidin-2′-ylamino)propan-1-ol] |
| 398 nM | CNc1ncc(-c2ccnc(NC3CCOCC3)n2)c(CC2CC2)n1 [Example 14g, 4′-(cyclopropylmethyl)-N^2′-methyl-N^2-(tetrahydro-2H-pyran-4-yl)-4,5′-bipyrimidine-2,2′-diamine] |
| 1290 nM | Nc1ncc(-c2ccnc(NCc3cccnc3)n2)c(CC2CC2)n1 [Example 15q] |
| 1660 nM | Nc1ncc(-c2ccnc(NCCN3CCOCC3)n2)c(CC2CC2)n1 [Example 15s, 4′-(cyclopropylmethyl)-N^2-(2-morpholinoethyl)-4,5′-bipyrimidine-2,2′-diamine] |
| 119 nM | CNc1ncc(-c2ccnc(Nc3ccc(OC)cc3)n2)c(CC2CC2)n1 [Example 14m, 4′-(cyclopropylmethyl)-N^2-(4-methoxyphenyl)-N^2′-methyl-4,5′-bipyrimidine-2,2′-diamine] |
| 36 nM | Cc1cc2cc(Nc3nccc(-c4cnc(N)nc4CC4CC4)n3)ccc2[nH]1 [Example 15w, 4′-(cyclopropylmethyl)-N^2-(2-methyl-1H-indol-5-yl)-4,5′-bipyrimidine-2,2′-diamine] |
| 25 nM | CC(C)(O)CNc1ncc(-c2ccnc(Nc3ccc(C#N)cc3)n2)c(CC2CC2)n1 [Example 16b, 4-(4′-(cyclopropylmethyl)-2′-(2-hydroxy-2-methylpropylamino)-4,5′-bipyrimidin-2-ylamino)benzonitrile] |
| 53 nM | C[C@@H](CO)Nc1ncc(-c2ccnc(Nc3ccncc3)n2)c(CC2CC2)n1 [Example 10q, (S)-2-(4′-(cyclopropylmethyl)-2-(pyridin-4-ylamino)-4,5′-bipyrimidin-2′-ylamino)propan-1-ol] |
| 31 nM | CCc1nc(NCC(C)(C)O)ncc1-c1ccnc(Nc2ccc(C#N)cc2)n1 [Example 37a, 4-(4′-ethyl-2′-(2-hydroxy-2-methylpropylamino)-4,5′-bipyrimidin-2-ylamino)benzonitrile] |
